Measurements taken from US7015236B2, “N-heteroarylnicotinamide derivatives” (Sankyo Agro Company, Limited, priority 2001, dated 2006).

Experiments:
[1] = system: green peach aphid (Myzus persicae); test: Insecticidal test for green peach aphid (10 ppm and 3 ppm), Test Example 2; format: in vivo; conditions: same manner as Test Example 1; for mortality at 3 ppm: Chemical concentration of spray 3 ppm; for mortality at 10 ppm: Chemical concentration of spray 10 ppm
Procedure: (§1) Water (30 ml) was put into a beaker, and a leaf of Komatsuna (Brassica var. rapa) was placed within the beaker such that the stem was immersed in water. On the leaf of Komatsuna, five green peach aphids were released and allowed to fertilize. Two days after the releasing, imagoes were removed and the number of larvae was counted.
(§2) A surfactant Newcol NE-710F (trademark, produced by Nippon Nyukazai Co., Ltd., 2%) was dissolved in aqueous acetone (95% aqueous solution, 98%) to prepare solution 1. Next, a dispersant Gousenol GLO5-S (trademark, produced by Nippon Nyukazai Co., Ltd., 0.2% aqueous solution, 0.2%) was dissolved in water (99.8%) to prepare solution 2.
(§3) To each of the compounds (8 mg) of the present invention, the above solution 1 (0.4 ml), the above solution 2 (0.4 ml) and water (8 ml) were added. Further, the compounds of the present invention were each diluted with water so that the concentration of each compound was 100 ppm {as a spreading agent, Gramin S (trademark, produced by Sankyo Co., Ltd.) was added so as to have a concentration of 0.01%}.
(§4) The above chemical liquid (8 ml) was sprayed on the leaf of Komatsuna by use of a rotary spraying tower. The leaf of Komatsuna was put back in the beaker. Then, the beaker was placed in a thermostatic chamber of 25° C. for 16 hours in the light and for 8 hours in the dark. 5 Days after the spraying, the number of dead insects was counted to calculate the mortality (%).
Insecticidal Test for Green Peach Aphid (Myzus persicae) (10 ppm and 3 ppm)
The test was carried out in the same manner as in Test Example 1 except for setting the dilution concentration to 10 ppm and 3 ppm. Incidentally, Comparative Compound a and Comparative Compound b (Compound No. 6) listed in Table 1 of Japanese Provisional Patent Publication No. Hei 10-195072 were used as a comparison. [drawing 25]

[2] = system: green peach aphid (Myzus persicae); test: Insecticidal test for green peach aphid (100 ppm), Test Example 1; format: in vivo; conditions: 120 h, 100 ppm spray on Komatsuna leaf, larvae, counted 5 days after spraying, 25° C., read-out: mortality (%)
Procedure: Insecticidal test for green peach aphid (Myzus persicae) (100 ppm)
as §1, §2, §3, §4

Row | SMILES | mortality at 3 ppm [1] [%] | mortality at 10 ppm [1] [%] | mortality at 100 ppm [2] [%]
1 | Cc1cnc(NC(=O)c2cnccc2C(F)(F)F)s1 [Comparative Compound a, reference compound] | 0 | 6 | –
2 | O=C(Nc1nncs1)c1cnccc1C(F)(F)F [Comparative Compound b, reference compound] | 0 | 0 | –
3 | Cc1cc(NC(=O)c2cnccc2C(F)(F)F)on1 [Example 1, N-(3-Methyl-5-isoxazolyl)-4-(trifluoromethyl)nicotinamide] | 100 | 100 | ≥ 95
4 | O=C(Nc1ccno1)c1cnccc1C(F)(F)F [Example 4, N-(5-Isoxazolyl)-4-(trifluoromethyl)nicotinamide] | 100 | 100 | ≥ 95
5 | Cc1ccc(-c2cnoc2NC(=O)c2cnccc2C(F)(F)F)cc1 [Example 54, N-[4-(4-Methylphenyl)-5-isoxazolyl]-4-(trifluoromethyl)nicotinamide] | – | – | ≥ 95
6 | COc1ccc(-c2cnoc2NC(=O)c2cnccc2C(F)(F)F)cc1 [Example 55, N-[4-(4-Methoxyphenyl)-5-isoxazolyl]-4-(trifluoromethyl)nicotinamide] | – | – | ≥ 95
7 | O=C(Nc1oncc1-c1ccc(Cl)cc1)c1cnccc1C(F)(F)F [Example 56, N-[4-(4-Chlorophenyl)-5-isoxazolyl]-4-(trifluoromethyl)nicotinamide] | – | – | ≥ 95
8 | O=C(Nc1oncc1-c1ccc(C(F)(F)F)cc1)c1cnccc1C(F)(F)F [Example 57, N-[4-(4-Trifluoromethylphenyl)-5-isoxazolyl]-4-(trifluoromethyl)nicotinamide] | – | – | ≥ 95
9 | O=C(Nc1oncc1-c1ccc(OC(F)(F)F)cc1)c1cnccc1C(F)(F)F [Example 58, N-[4-(4-Trifluoromethoxyphenyl)-5-isoxazolyl]-4-(trifluoromethyl)nicotinamide] | – | – | ≥ 95
10 | O=C(Nc1oncc1-c1cccnc1)c1cnccc1C(F)(F)F [Example 59, N-[4-(3-Pyridyl)-5-isoxazolyl]-4-(trifluoromethyl)nicotinamide] | – | – | ≥ 95
11 | CON=Cc1noc(NC(=O)c2cnccc2C(F)(F)F)c1Cl [Example 60, N-(4-Chloro-3-methoxyiminomethyl-5-isoxazolyl)-4-(trifluoromethyl)nicotinamide] | – | – | ≥ 95
12 | Cc1noc(NC(=O)c2cnccc2C(F)(F)F)c1-c1ccccc1 [Example 61, N-(3-Methyl-4-phenyl-5-isoxazolyl)-4-(trifluoromethyl)nicotinamide] | – | – | ≥ 95
13 | O=C(Nc1oncc1C1=CCCCC1)c1cnccc1C(F)(F)F [Example 62, N-[4-(Cyclohex-1-ene-1-yl)-5-isoxazolyl]-4-(trifluoromethyl)nicotinamide] | – | – | ≥ 95
14 | COCc1cnoc1NC(=O)c1cnccc1C(F)(F)F [Example 63, N-(4-Methoxymethyl-5-isoxazolyl)-4-(trifluoromethyl)nicotinamide] | – | – | ≥ 95
15 | O=C(Nc1oncc1-n1cccn1)c1cnccc1C(F)(F)F [Example 64, N-[4-(1H-Pyrazol-1-yl)-5-isoxazolyl]-4-(trifluoromethyl)nicotinamide] | – | – | ≥ 95
16 | O=C(Nc1oncc1C1CCCCC1)c1cnccc1C(F)(F)F [Example 65, N-(4-Cyclohexyl-5-isoxazolyl)-4-(trifluoromethyl)nicotinamide] | – | – | ≥ 95
17 | Cc1noc(NC(=O)c2cnccc2C(F)(F)F)c1F [Example 66, N-(4-Fluoro-3-methyl-5-isoxazolyl)-4-(trifluoromethyl)nicotinamide] | – | – | ≥ 95
